Our source for the LC retention time values is the RepoRT retention time repository (doi:10.1016/j.aca.2011.12.065).

Series [1] in a line: RP, Waters ACQUITY UPLC BEH C18, 100 × 2.1 mm, 1.7 µm; A: water + 0.1% formic acid, pH 3; B: 80% acetonitrile + 20% acetone + 0.1% formic acid, pH 3; gradient (min/%B) 0/0 6/100. Particulars: stereoisomer not certain.
The nature of series [2]: RP, Waters ACQUITY UPLC HSS T3, 100 × 2.1 mm, 1.8 µm; A: water + 0.1% formic acid, pH 3; B: 30% methanol + 70% acetonitrile + 0.1% formic acid, pH 3; gradient (min/%B) 0.0/5 1.0/8 2.0/15 3.0/40 4.0/70 4.5/100 5.0/100 6.4/100 6.6/5.0 6.8/5.0 7.0/5.0. Particulars: stereoisomer not certain.

The structures appear in SMILES notation.

`O=C(O)Cc1ccccc1` [Phenylacetic acid]: the LC retention time in series [1] was found to be 1.19 min; in series [2], 0.861 min.

In the case of `O=C(O)c1ccc2ccccc2n1` [quinaldic acid], the LC retention time was 1.68 min in series [1] and 2.86 min in series [2].

Regarding `COc1cc(C=O)ccc1O` [vanillin], the LC retention time is 2.03 min in series [1] and 3.45 min in series [2].

On to `Cn1c(=O)c2c(ncn2C)n(C)c1=O` [Caffeine], for which the LC retention time in series [1] amounted to 1.65 min; in series [2] it was 3.13 min.

Consider `O=C(O)C(O)Cc1ccccc1` (configuration not stated) [phenyllactic acid], for which the LC retention time in series [1] was found to be 2.08 min; in series [2], 3.49 min.

On to `O=C(O)C(O)Cc1c[nH]c2ccccc12` (racemic) [dl-3-indolelactic acid], for which the values for the LC retention time in series [1] and in series [2] were 2.13 min and 3.52 min, respectively.

`Cc1cn(C2OC(CO)C(O)C2O)c(=O)nc1N` (configuration not stated) [5-methylcytidine]: the LC retention time was 1.28 min in series [1] and 1.18 min in series [2].

Regarding `CCCCCCCCCCCC(=O)OC(CC(=O)[O-])C[N+](C)(C)C` (stereo not drawn) [lauroyl l-carnitine], the values for the LC retention time in series [1] and in series [2] were 3.38 min and 4.2 min, respectively.

`Nc1ncnc2c1ncn2C1OC(CO)C(O)C1O` (configuration not stated) [Adenosine]: the LC retention time amounted to 1.34 min in series [1] and 0.857 min in series [2].

With `CC1(O)CCOC(=O)C1` (configuration not stated) [Mevalonolactone], the results for the LC retention time in series [1] and in series [2] were 1.38 min and 1.19 min, respectively.

Take `COC1=C(OC)C(=O)C(CC=C(C)C)=C(C)C1=O` [coenzyme q1]: the LC retention time is 3.92 min in series [1] and 4.47 min in series [2].

Regarding `O=C(O)CCCCCC(=O)O` [Pimelic acid], the LC retention time in series [1] is 1.72 min; in series [2], 3.17 min.

As for `CN1C(=O)CCC1c1cccnc1` (single isomer, unassigned; (-)) [(-)-Cotinine], the LC retention time is 1.26 min in series [1] and 0.793 min in series [2].

As to `CC(O)C(N)C(=O)O` (configuration not stated) [Threonine], the LC retention time in series [1] turned out to be 0.574 min; in series [2], 0.475 min.

As for `OC1C(O)C(O)C(O)C(O)C1O` (configuration not stated) [myo-inositol], the LC retention time in series [1] was determined as 0.571 min; in series [2], 0.465 min.

Take `NC(CCCNC1=NCC(=O)N1)C(=O)O` (configuration not stated): the LC retention time in series [1] was 0.561 min; in series [2], 0.459 min.

With `CC1NC(=NCCCC(N)C(=O)O)NC1=O` (configuration not stated), the LC retention time in series [1] is 0.585 min; in series [2] it was 0.484 min.

Consider `Nc1ccn(C2OC(CO)C(O)C2O)c(=S)n1` (configuration not stated) [2-thiocytidine dihydrate], for which the LC retention time came to 0.986 min in series [1] and 0.619 min in series [2].

In the case of `NC(CCCC(N)C(=O)O)C(=O)O` (configuration not stated) [2,6-diaminopimelic acid], the LC retention time worked out at 0.543 min in series [1] and 0.44 min in series [2].

Consider `O=C1CCC(C(=O)N2CCCC2C(=O)O)N1` (configuration not stated) [pglu-pro], for which the LC retention time in series [1] came to 1.43 min; in series [2] it was 2.02 min.

For `NC(=O)NCCCC(N)C(=O)O` (configuration not stated) [Citrulline], the values for the LC retention time in series [1] and in series [2] were 0.575 min and 0.47 min, respectively.

Regarding `CC(C)c1cc2c(c(O)c1O)C13CCCC(C)(C)C1CC2OC3=O` (configuration not stated) [carnosol], the LC retention time in series [1] came out at 4 min; in series [2], 4.51 min.

As to `CC12CCC(=O)C=C1CCC1C2C(O)CC2(C)C1CCC2(O)C(=O)CO` (configuration not stated) [hydrocortisone, cortisol], the LC retention time in series [1] came out at 2.63 min; in series [2], 3.87 min.

On to `CC(CCC(=O)O)C1CCC2C3C(=O)CC4CC(=O)CCC4(C)C3CC(=O)C12C` (configuration not stated) [dehydrocholic acid], for which the LC retention time in series [1] turned out to be 2.98 min; in series [2], 4.05 min.

For the molecule `CN1CC(=O)NC1=N` [Creatinine], the LC retention time in series [1] is 0.572 min; in series [2], 0.467 min.

With `Nc1nc2c(ncn2C2OC(CO)C(O)C2O)c(=O)[nH]1` (configuration not stated) [guanosine], the figures for the LC retention time in series [1] and in series [2] were 1.26 min and 1.18 min, respectively.
